Results as given in patent publication US20260374773A1, “MULTI-CYCLIC IRAK AND FLT3 INHIBITING COMPOUNDS AND USES THEREOF” (CHILDREN'S HOSPITAL MEDICAL CENTER, priority 2022, published 2026).

Target: T1, FLT3 D835V (Homo sapiens, UniProt P36888, D835V)
T1 sequence (P36888 27-993 D835V): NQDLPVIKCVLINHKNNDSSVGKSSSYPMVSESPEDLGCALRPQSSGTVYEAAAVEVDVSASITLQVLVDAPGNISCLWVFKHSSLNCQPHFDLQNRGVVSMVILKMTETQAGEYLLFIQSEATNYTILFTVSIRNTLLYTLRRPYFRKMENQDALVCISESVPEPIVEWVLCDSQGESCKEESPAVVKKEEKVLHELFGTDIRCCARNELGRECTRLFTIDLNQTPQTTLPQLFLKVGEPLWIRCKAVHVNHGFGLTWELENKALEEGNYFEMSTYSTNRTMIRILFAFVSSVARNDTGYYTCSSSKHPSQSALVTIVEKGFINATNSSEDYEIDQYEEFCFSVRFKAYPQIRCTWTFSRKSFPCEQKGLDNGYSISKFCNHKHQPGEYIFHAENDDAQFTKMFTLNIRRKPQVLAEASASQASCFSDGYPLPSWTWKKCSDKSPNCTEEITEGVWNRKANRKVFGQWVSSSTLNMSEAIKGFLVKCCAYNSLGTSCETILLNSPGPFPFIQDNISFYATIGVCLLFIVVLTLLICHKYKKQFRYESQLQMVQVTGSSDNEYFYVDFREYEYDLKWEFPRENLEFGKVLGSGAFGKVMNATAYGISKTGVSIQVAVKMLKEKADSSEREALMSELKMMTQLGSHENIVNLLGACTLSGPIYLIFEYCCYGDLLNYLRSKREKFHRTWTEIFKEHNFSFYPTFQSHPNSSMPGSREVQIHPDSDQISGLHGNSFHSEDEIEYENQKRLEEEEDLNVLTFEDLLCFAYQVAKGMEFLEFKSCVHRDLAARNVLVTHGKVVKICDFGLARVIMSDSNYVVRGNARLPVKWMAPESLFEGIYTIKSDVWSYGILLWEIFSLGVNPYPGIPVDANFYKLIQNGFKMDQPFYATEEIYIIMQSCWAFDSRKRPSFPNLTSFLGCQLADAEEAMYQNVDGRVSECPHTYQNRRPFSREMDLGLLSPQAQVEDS
Assay: DiscoverX KINOMEscan active site-directed competition binding, FLT3 D835V
Details: Table 12; no ATP
Excerpt: (§1) Kinase binding data were obtained for various exemplary compounds prepared according to Examples 1-8 using the DiscoverX KINOMEscan® active site-directed competition binding site-directed assay protocol described below. […] As a result, the data report thermodynamic interaction affinities (Kd values), rather than IC50 values that are dependent on ATP concentrations. The assay uses a DNA-tagged version of the protein kinase, and an immobilized ligand bound to a solid support. Compounds that directly or indirectly prevent kinase binding to the immobilized ligand reduce the amount of kinase captured on the solid support, which is detected using an ultra-sensitive qPCR method. Affinity constants reported from the assay have been reported to be independent of the immobilized ligand used that is coupled to the solid support (See supplemental information in Fabian, M. A. et. al., (2005) Nat. Biotechnol. 23, 329-336; Wodicka, L. M. et. al., (2010) Chem. Biol. 17, 1241-1249.)
Kinase-tagged T7 phage strains were prepared in an E. coli host derived from the BL21 strain. E. coli were grown to log-phase and infected with T7 phage and incubated with shaking at 32 °C until lysis. The lysates were centrifuged and filtered to remove cell debris. The remaining kinases were produced in HEK-293 cells and subsequently tagged with DNA for qPCR detection. Streptavidin-coated magnetic beads were treated with biotinylated small molecule ligands for 30 minutes at room temperature to generate affinity resins for kinase assays. The liganded beads were blocked with excess biotin and washed with blocking buffer (SeaBlock (Pierce), 1% BSA, 0.05% Tween 20, 1 mM DTT) to remove unbound ligand and to reduce non-specific binding. […] Test compounds were prepared as 111x stocks in 100% DMSO. Kds were determined using an 11-point 3-fold compound dilution series with three DMSO control points. All compounds for Kd measurements are distributed by acoustic transfer (non-contact dispensing) in 100% DMSO. The compounds were then diluted directly into the assays such that the final concentration of DMSO was 0.9%. All reactions were performed in polypropylene 384-well plates. Each was a final volume of 0.02 mL. The assay plates were incubated at room temperature with shaking for 1 hour and the affinity beads were washed with wash buffer (1×PBS, 0.05% Tween 20). The beads were then re-suspended in elution buffer (1×PBS, 0.05% Tween 20, 0.5 μM nonbiotinylated affinity ligand) and incubated at room temperature with shaking for 30 minutes. The kinase concentration in the eluates was measured by qPCR. Binding constants (Kds) were calculated with a standard dose-response curve using the Hill equation. The Hill Slope was set to −1. Curves were fitted using a non-linear least square fit with the Levenberg-Marquardt algorithm.
as §1, with “9-12” for “1-8”
Kinase-tagged T7 phage strains were prepared in an E. coli host derived from the BL21 strain. […]

| Kd | SMILES |
| --- | --- |
| < 0.17 nM | COc1cn2ncc(-c3nc(N[C@H]4CNCC[C@@H]4F)c(F)cc3F)c2nc1C(C)(C)O [Compound 13, 2-(3-(3,5-difluoro-6-(((3S,4S)-4-fluoropiperidin-3-yl)amino)pyridin-2-yl)-6-methoxypyrazolo[1,5-a]pyrimidin-5-yl)propan-2-ol] |
| < 0.17 nM | COc1cn2ncc(-c3nc(N[C@H]4CNCC[C@@H]4F)c(C#N)cc3F)c2nc1C(C)(C)O [Compound 10, 5-fluoro-2-(((3S,4S)-4-fluoropiperidin-3-yl)amino)-6-(5-(2-hydroxypropan-2-yl)-6-methoxypyrazolo[1,5-a]pyrimidin-3-yl)nicotinonitrile] |
| < 0.17 nM | COc1cn2ncc(-c3nc(N[C@H]4CNCC[C@@H]4F)c(C#N)cc3F)c2nc1C1CC1 [Compound 7, 6-(5-cyclopropyl-6-methoxypyrazolo[1,5-a]pyrimidin-3-yl)-5-fluoro-2-(((3S,4S)-4-fluoropiperidin-3-yl)amino)nicotinonitrile] |

Same assay, conditions: Table 18; no ATP

| Kd | SMILES |
| --- | --- |
| < 0.17 nM | COc1cn2ncc(-c3nc(N[C@@H]4CCCNC4)ncc3F)c2nc1C1CC1 [Compound 14a, (R)-4-(5-cyclopropyl-6-methoxypyrazolo[1,5-a]pyrimidin-3-yl)-5-fluoro-N-(piperidin-3-yl)pyrimidin-2-amine] |
| 0.28 nM | COc1cn2ncc(-c3nc(N[C@H]4CNCC[C@@H]4F)ncc3F)c2nc1C1CC1 [Compound 15a, 4-(5-cyclopropyl-6-methoxypyrazolo[1,5-a]pyrimidin-3-yl)-5-fluoro-N-((3S,4S)-4-fluoropiperidin-3-yl)pyrimidin-2-amine] |
| < 0.17 nM | COc1cn2ncc(-c3cncc(N[C@H]4CNCC[C@@H]4F)n3)c2nc1C1CC1 [Compound 12a, 6-(5-cyclopropyl-6-methoxypyrazolo[1,5-a]pyrimidin-3-yl)-N-((3S,4S)-4-fluoropiperidin-3-yl)pyrazin-2-amine] |
| < 0.17 nM | COc1cn2ncc(-c3nc(N[C@H]4CNCC[C@@H]4F)ncc3F)c2nc1C(C)(C)O [Compound 6a, 2-(3-(5-fluoro-2-(((3S,4S)-4-fluoropiperidin-3-yl)amino)pyrimidin-4-yl)-6-methoxypyrazolo[1,5-a]pyrimidin-5-yl)propan-2-ol] |
| 0.48 nM | COc1cn2ncc(-c3ccnc(N[C@H]4CNCC[C@@H]4F)n3)c2nc1C1CC1 [Compound 7a, 4-(5-cyclopropyl-6-methoxypyrazolo[1,5-a]pyrimidin-3-yl)-N-((3S,4S)-4-fluoropiperidin-3-yl)pyrimidin-2-amine] |
